Source: BindingDB's records for doi:10.1111/cbdd.12324 (Y.B. Chavan College of Pharmacy, 2014)
pIC50: −log10 of the molar value.

Columns and labels:
[1] = target: T1, Prostaglandin G/H synthase 1 (Ovis aries, UniProt P05979); assay: Cyclooxygenase (COX) Inhibition Assay; conditions: 37 °C
T1 sequence (P05979 whole entry): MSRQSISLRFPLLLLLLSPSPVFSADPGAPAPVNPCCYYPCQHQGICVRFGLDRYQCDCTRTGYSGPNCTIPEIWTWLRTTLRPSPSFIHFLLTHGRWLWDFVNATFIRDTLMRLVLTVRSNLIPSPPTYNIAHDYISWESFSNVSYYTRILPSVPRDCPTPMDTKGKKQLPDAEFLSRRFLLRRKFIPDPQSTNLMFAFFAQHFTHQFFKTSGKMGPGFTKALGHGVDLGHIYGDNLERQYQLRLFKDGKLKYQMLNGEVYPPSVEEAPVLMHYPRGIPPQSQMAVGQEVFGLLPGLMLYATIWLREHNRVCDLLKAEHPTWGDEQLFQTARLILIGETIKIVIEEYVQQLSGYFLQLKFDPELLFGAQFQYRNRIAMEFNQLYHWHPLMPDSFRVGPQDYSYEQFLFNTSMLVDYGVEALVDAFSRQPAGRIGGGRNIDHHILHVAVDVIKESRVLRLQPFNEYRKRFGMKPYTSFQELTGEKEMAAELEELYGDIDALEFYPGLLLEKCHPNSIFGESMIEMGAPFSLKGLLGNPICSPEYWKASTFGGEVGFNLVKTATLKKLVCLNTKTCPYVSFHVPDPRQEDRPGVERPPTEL
Description: (§1) The COX-1/COX-2 inhibition assay was done using an enzyme immunoassay (EIA) kit. The reaction buffer (960 uL), containing 0.1 M Tris-HCl (pH 8.0), 5 mM EDTA and 2 mM phenol, with either COX-1 or COX-2 (10 uL) enzyme in the presence of heme (10 uL) was added 10 uL of various concentrations of test drug solutions (0.01, 0.1, 1, 10, 50, and 100 uM in a final volume of 1 mL). The reaction was incubated for 5 min at 37 uC, followed by the addition of 10 uL of AA (100 uM) solution. The reaction was stopped by the addition of 50 uL of 1M HCl after 2 min.

[2] = target: T2, Prostaglandin G/H synthase 2 (Ovis aries, UniProt P79208); assay: Cyclooxygenase (COX) Inhibition Assay; conditions: 37 °C
T2 sequence (P79208 whole entry): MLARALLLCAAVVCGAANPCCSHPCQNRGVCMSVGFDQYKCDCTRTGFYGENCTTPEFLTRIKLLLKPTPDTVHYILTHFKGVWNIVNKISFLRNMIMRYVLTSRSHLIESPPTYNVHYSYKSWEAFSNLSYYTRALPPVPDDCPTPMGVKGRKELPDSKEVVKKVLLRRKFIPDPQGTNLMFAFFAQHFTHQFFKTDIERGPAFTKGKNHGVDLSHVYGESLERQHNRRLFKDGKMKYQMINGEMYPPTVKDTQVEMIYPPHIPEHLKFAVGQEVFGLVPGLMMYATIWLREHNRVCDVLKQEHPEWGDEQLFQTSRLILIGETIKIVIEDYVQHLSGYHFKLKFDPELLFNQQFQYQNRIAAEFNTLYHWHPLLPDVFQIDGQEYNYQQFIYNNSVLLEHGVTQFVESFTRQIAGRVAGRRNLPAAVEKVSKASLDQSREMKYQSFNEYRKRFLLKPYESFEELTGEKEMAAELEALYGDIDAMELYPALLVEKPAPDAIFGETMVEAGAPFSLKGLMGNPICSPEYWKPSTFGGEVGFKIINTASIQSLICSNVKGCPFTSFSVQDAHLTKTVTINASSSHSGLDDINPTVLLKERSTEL
Description: as §1

SMILES	pIC50 [1]	pIC50 [2]
Cc1[nH]n(-c2ccccc2)c(=O)c1CNC(=S)Nc1ccccc1 [1-[(3-methyl-5-oxo-1-phenyl-4,5-dihydro-1H-pyrazol-4-yl)methyl]-3-phenylthiourea (5d)]	4.10	6.70
Cc1[nH]n(-c2ccccc2)c(=O)c1CNC(N)=S [1-[(3-methyl-5-oxo-1-phenyl-4,5-dihydro-1H-pyrazol-4-yl)methyl]thiourea (5c)]	< 4.00	4.07
Cc1[nH]n(-c2ccccc2)c(=O)c1CNC(=O)Nc1ccc(Cl)cc1 [1-(4-chlorophenyl)-3-[(3-methyl-5-oxo-1-phenyl-4,5-dihydro-1H-pyrazol-4-yl)methyl]urea (5b)]	< 4.00	< 4.00
Cc1[nH]n(-c2ccccc2)c(=O)c1CNC(=O)NN [N-[(3-methyl-5-oxo-1-phenyl-4,5-dihydro-1H-pyrazol-4yl)methyl] hydrazine carboxamide (5g)]	< 4.00	< 4.00
Cc1cc(=O)n(-c2ccccc2)[nH]1 [MLS000069602]	< 4.00	4.46
Cc1[nH]n(-c2ccccc2)c(=O)c1CNc1ccc(S(N)(=O)=O)cc1 [4-{[(3-methyl-5-oxo-1-phenyl-4,5-dihydro-1H-pyrazol-4-yl)methyl]amino} benzene sulfonamide (5f)]	< 4.00	6.00
Cc1[nH]n(-c2ccccc2)c(=O)c1CN=C(N)N [1-((3-methyl-5-oxo-1-phenyl-4,5-dihydro-1H-pyrazol-4-yl)methyl)guanidine (5e)]	< 4.00	4.29
Cc1[nH]n(-c2ccccc2)c(=O)c1CNC(N)=O [1-[(3-methyl-5-oxo-1-phenyl-4,5-dihydro-1H-pyrazol-4-yl)methyl]urea (5a)]	< 4.00	5.64
